Measurements from ChEMBL document CHEMBL1201862, “PubChem BioAssay data set” (2004).
Where “and” joins values, the source holds several entries; their conditions need not be identical. Equal values may be shown once.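 Compound exposure: 48 hours, 5 concentrations, 96-well plates. Abbreviation: GI50, concentration required for 50% inhibition of growth.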 Calls of active or inactive are those of the source. Rule as the data show it: active = GI50 up to about 1.1 µM and inactive = higher.

Assays:
Assay in all cases: inhibition of tumour cell growth, NCI panel, 48 h
786-0 = tested on: 786-0
A498 = tested on: A498
A549 = tested on: A549
ACHN = tested on: ACHN
BT-549 = tested on: BT-549
CAKI-1 = tested on: CAKI-1
CCRF-CEM = tested on: CCRF-CEM
COLO 205 = tested on: COLO 205
DU-145 = tested on: DU-145
EKVX = tested on: EKVX
HCC 2998 = tested on: HCC 2998
HCT-116 = tested on: HCT-116
HCT-15 = tested on: HCT-15
HL-60 = tested on: HL-60
HOP-62 = tested on: HOP-62
HT-29 = tested on: HT-29
Hs-578T = tested on: Hs-578T
IGROV-1 = tested on: IGROV-1
K562 = tested on: K562
KM12 = tested on: KM12
M14 = tested on: M14
MCF7 = tested on: MCF7
MDA-MB-231 = tested on: MDA-MB-231
MDA-N = tested on: MDA-N
MOLT-4 = tested on: MOLT-4
Malme-3M = tested on: Malme-3M
NCI-H226 = tested on: NCI-H226
NCI-H23 = tested on: NCI-H23
NCI-H460 = tested on: NCI-H460
NCI-H522 = tested on: NCI-H522
NCI/ADR-RES = tested on: NCI/ADR-RES
OVCAR-3 = tested on: OVCAR-3
OVCAR-4 = tested on: OVCAR-4
OVCAR-5 = tested on: OVCAR-5
OVCAR-8 = tested on: OVCAR-8
PC-3 = tested on: PC-3
RXF 393 = tested on: RXF 393
SF-268 = tested on: SF-268
SF-295 = tested on: SF-295
SF-539 = tested on: SF-539
SK-MEL-28 = tested on: SK-MEL-28
SK-MEL-2 = tested on: SK-MEL-2
SK-MEL-5 = tested on: SK-MEL-5
SK-OV-3 = tested on: SK-OV-3
SN12C = tested on: SN12C
SNB-19 = tested on: SNB-19
SNB-75 = tested on: SNB-75
SR = tested on: SR
SW-620 = tested on: SW-620
T47D = tested on: T47D
TK-10 = tested on: TK-10
U-251 = tested on: U-251
UACC-257 = tested on: UACC-257
UACC-62 = tested on: UACC-62
UO-31 = tested on: UO-31
HOP-92 = tested on: HOP-92
RPMI-8226 = tested on: RPMI-8226

Measured: GI50

COC(=O)Nc1nc(=O)c2ccccc2[nH]1
active: A549 0.0775 µM
> 100 µM: HCT-15
inactive: 786-0 > 100 µM | A498 > 10 µM | ACHN > 100 µM | BT-549 > 100 µM | CAKI-1 > 100 µM | CCRF-CEM > 100 µM | COLO 205 > 100 µM | DU-145 > 100 µM | EKVX > 100 µM | HCC 2998 > 100 µM | HCT-116 48.8 µM | HL-60 > 100 µM | HOP-62 > 100 µM | HT-29 > 100 µM | Hs-578T 76.7 µM | IGROV-1 > 100 µM | K562 31.1 µM | KM12 90.4 µM | M14 > 100 µM | MCF7 > 100 µM | MDA-MB-231 > 100 µM | MDA-N 19.5 µM | MOLT-4 > 100 µM | Malme-3M 53.3 µM | NCI-H226 > 100 µM | NCI-H23 > 100 µM | NCI-H460 > 100 µM | NCI-H522 50.1 µM | NCI/ADR-RES > 100 µM | OVCAR-3 > 100 µM | OVCAR-4 > 100 µM | OVCAR-5 > 100 µM | OVCAR-8 > 100 µM | PC-3 > 100 µM | RXF 393 36.8 µM | SF-268 > 100 µM | SF-295 30.6 µM | SF-539 > 100 µM | SK-MEL-28 > 100 µM | SK-MEL-2 > 100 µM | SK-MEL-5 55 µM | SK-OV-3 65.3 µM | SN12C > 100 µM | SNB-19 > 100 µM | SNB-75 28 µM | SR > 100 µM | SW-620 79.6 µM | T47D > 100 µM | TK-10 > 100 µM | U-251 43.8 µM | UACC-257 > 100 µM | UACC-62 > 100 µM | UO-31 32.1 µM

CCOC(=O)[C@]1(OC(C)=O)C[C@H](OC(C)=O)[C@@H](C(F)COP(=O)(OCc2ccccc2)OCc2ccccc2)O1 (stereo partly specified)
inactive: A549 > 100 µM | BT-549 > 100 µM | CAKI-1 > 100 µM | CCRF-CEM 72.9 µM and 49 µM | DU-145 > 100 µM | HCC 2998 76.2 µM | HOP-62 > 100 µM | HOP-92 18.5 µM | Hs-578T > 100 µM | K562 71.4 µM | MDA-MB-231 57.3 µM | MDA-N > 100 µM | MOLT-4 > 100 µM | NCI-H226 > 100 µM | NCI/ADR-RES > 100 µM | OVCAR-8 > 100 µM | PC-3 32.4 µM and 58.6 µM | RPMI-8226 19.8 µM and 25.9 µM | SF-268 > 100 µM | SF-539 > 100 µM | SK-MEL-28 > 100 µM | SK-MEL-5 > 100 µM | SK-OV-3 > 100 µM | SN12C > 100 µM | SNB-75 > 100 µM | UACC-257 76.2 µM
